# Test results: US12414990B2, “Use of HLA-A*11:01-restricted hepatitis B virus (HBV) peptides for identifying HBV-specific CD8+ T cells” (AGENCY FOR SCIENCE, TECHNOLOGY AND RESEARCH, priority 2019, dated 2025)
# “Also recorded” adds a separate entry of the source.
# Experiments:
# [1] = tested on: antigen-specific CD8+ T cells; test: High-dimensional phenotypic profiling of antigen-specific CD8+ T cells (t-SNE, Phenograph, One-SENSE, Scorpius); assay type: cell-based, human
# Description: Validated antigen-specific CD8+ T cells were exported individually from each donor for dimensionality reduction analysis. Detailed methodology for t-SNE and One-SENSE can be found elsewhere. Briefly, t-SNE and One-SENSE were performed using custom R scripts based on “flowCore” and “Rtsne” packages downloaded from The Comprehensive R Archive Network (CRAN). All data were transformed using the “logicleTransform” function and w=0.25, t=16409, m=4.5, a=0 as input parameters to roughly match scaling historically used in FlowJo. Cellular markers analyzed by t-SNE and One-SENSE were indicated (table S2). For One-SENSE, cellular markers in each T cell category (“Differentiation+TNFR”, “Exhaustion” and “Trafficking”) were subjectively assigned for categorical analysis. Aligned heatplots represent the distribution of marker positive cells in percentage on each “bin” on the axis (category) constructed by cells residing in small ranges of values. Positive population of markers was manually defined and markers of the same category were combined for each dimension using 250 bins.
# Logistic regression was performed using the drc R package (v 3.0.1) using a 3-parameters logistic model.
# [2] = tested on: virus-specific CD8+ T cells in patient PBMC; test: In vitro virus-specific CD8+ T cell expansion by peptide stimulation with intracellular cytokine staining; assay type: cell-based, human
# Description: PBMC from patients were thawed and recovered, and then resuspend in AIM-V medium (with 2% human AB serum, 1% penicillin/streptomycin/L-glutamine, 1% 1M HEPES) (Gibco, Invitrogen) with 20 IU/ml of recombinant human IL-2 (R&D). Cells were pulsed with corresponded HBV or control peptides at 1 μM per 1 million cells in 200 μl medium in 96-well round-bottom tissue culture plate and cultured for 10 days at 37° C. Half of the medium was replaced as supplementary every three days without any peptide. […] After incubation, cells were collected and then stained with the 50-plex pMHC tetramers (table S1) and surface antibodies. Intracellular cytokine staining was performed on the second day as indicated in (table S2). All staining, cellular barcoding, and CD8 T cell enrichment were done in the same manner as ex vivo staining described above.
# [3] = tested on: HLA-A*11:01-restricted antigen-specific CD8+ T cells in patient's PBMC; test: Highly multiplexed combinatorial pMHC tetramer staining with mass cytometry (epitope mapping, frequency of antigen-specific CD8+ T cells); details: ex vivo PBMC; groups IT, IA, InA, R, HD, CB
sequence,measurement,setting,value
LVVDFSQFSR (Hepatitis B virus) [HBV-P-387],numbers of co-expressed inhibitory receptors on epitope-specific CD8+ T cells,"[1]; Boolean strategy, across patient groups",no differences in terms of the numbers accumulated on the cells across patient groups
same,proportion of cells with C13-like phenotype (CXCR3+CD27hiCD127hi) within HBVpol387-specific CD8+ T cells,[1]; IT patients,~80%
same,expansion of antigen-specific CD8+ T cells upon peptide stimulation,"[2]; 10 days in vitro culture, 1 μM peptide",less expanded in IT patients
same,functional subset of virus-specific CD8+ T cells after antigen recall (One-SENSE),"[2]; 10 days in vitro peptide stimulation, restimulation 7 hours",multi-functional subset
same,detection / frequency of epitope-specific CD8+ T cells across patient groups,[3],highest frequencies observed; also recorded: relatively high frequency in CHB and also in half of the HD tested
